The experiment deals with GP2D cells. The experiment in a line: Cell proliferation assay (CellTiter-Glo), K-Ras G12D cells. The experiment is classed as cell-based. As to conditions: read-out: Inhibition of GP2D Cells (IC50). As to the method:
ASPC-1 (ATCC CRL-1682), Panc-10.05 (ATCC CRL-2547), A427, and GP2D (Sigma 95090714) cell lines comprise a G12D mutation and can be used to assess Ras cellular signaling in vitro, e.g., in response to the compounds herein. […] ASPC-1 culture medium is prepared with RPMI-1640 and 10% heat-inactivated FBS. Panc-10.05 culture medium is prepared with RPMI-1640, 10 Units/ml human recombinant insulin, and 10% FBS. A427 cell culture is prepared with RPMI-1640 and 10% heat-inactivated FBS. GP2D culture medium is prepared with DMEM with 2mM glutamine and 10% heat-inactivated FBS. A Cell Titer-Glo (CTG) luminescent based assay (Promega) is used to assess growth of the cells, as a measurement of the ability of the compounds herein to inhibit Ras signaling in the cells. The cells (e.g., 800 per well) are seeded in their respective culture medium in standard tissue culture-treated 384-well format plates (Falcon #08-772-116) or ultra-low attachment surface 384-well format plates (S-Bio # MS-9384UZ ). The day after plating, cells are treated with a dilution series (e.g., a 9 point 3-fold dilution series) of the compounds herein (e.g., approximately 40 µl final volume per well). Cell viability can be monitored (e.g., approximately 5 days later) according to the manufacturer's recommended instructions, where the CellTiter-Glo reagent is added (e.g., approximately 10 µl), vigorously mixed, covered, and placed on a plate shaker (e.g., approximately for 20 min) to ensure sufficient cell lysis prior to assessment of luminescent signal. The IC50 values are determined using the four parameter fit. The resulting IC50 value is a measurement of the ability of the compounds herein to reduce cell growth of Ras-driven cells (e.g., tumor cell lines) in vitro and/or in vivo.
(In general: In ATP-based viability assays light output follows the ATP content of the culture.)

In patent EP4389751A1, “HETEROCYCLIC COMPOUNDS AND USES THEREOF” (Kumquat Biosciences Inc., priority 2021, dated 2024) one finds IC50 data, which are given here for eight compounds.

Molecules are shown by their SMILES. Read-outs that look alike come from different tables or passages of the source.

One may read the IC50 as the concentration at which inhibition is half-maximal. With `C#Cc1c(F)ccc2cc(O)cc(-c3ncc4c(N5CC6CCC(C5)N6C(=O)Nc5ncccn5)nc(OC[C@@]56CCCN5C[C@H](F)C6)nc4c3F)c12` [Compound A131, 3-(7-(8-ethynyl-7-fluoro-3-hydroxynaphthalen-1-yl)-8-fluoro-2-(((2R,7aS)-2-fluorotetrahydro-1H-pyrrolizin-7a(5H)-yl)methoxy)pyrido[4,3-d]pyrimidin-4-yl)-N-(pyrimidin-2-yl)-3,8-diazabicyclo[3.2. 1]octane-8-carboxamide], the IC50 (GP2D cells (K-Ras G12D)) was at most 1 µM.

Regarding `N#Cc1cnn(C(=O)N2C3CCC2CN(c2nc(OC[C@@]45CCCN4C[C@H](F)C5)nc4c(F)c(-c5ccc(F)c6sc(N)c(C#N)c56)ccc24)C3)c1` [Compound A176, 1-(3-(7-(2-amino-3-cyano-7-fluorobenzo[b]thiophen-4-yl)-8-fluoro-2-(((2R,7aS)-2-fluorotetrahydro-1H-pyrrolizin-7a(5H)-yl)methoxy)quinazolin-4-yl)-3,8-diazabicyclo[3.2. 1]octane-8-carbonyl)-1H-pyrazole-4-carbonitrile], the IC50 (GP2d) is 1 to 10 µM.

As to `N#Cc1c(N)sc2c(F)ccc(-c3c(Cl)cc4c(N5CC6CCC(C5)N6C(=O)n5ccnc5C#N)nc(OC[C@@]56CCCN5C[C@H](F)C6)nc4c3F)c12` [Compound A220, 1-(3-(7-(2-amino-3-cyano-7-fluorobenzo[b]thiophen-4-yl)-6-chloro-8-fluoro-2-(((2R,7aS)-2-fluorotetrahydro-1H-pyrrolizin-7a(5H)-yl)methoxy)quinazolin-4-yl)-3,8-diazabicyclo[3.2. 1]octane-8-carbonyl)-1H-imidazole-2-carbonitrile], under “GP2D cells (K-Ras G12D)”, the IC50 was at most 1 µM.

Take `C#Cc1c(F)ccc2cccc(-c3ccc4c(N5CC6CCC(C5)N6C(=O)n5cncn5)nc(OC[C@@]56CCCN5C[C@H](F)C6)nc4c3F)c12` [Compound A229, (3-(7-(8-ethynyl-7-fluoronaphthalen-1-yl)-8-fluoro-2-(((2R,7aS)-2-fluorotetrahydro-1H-pyrrolizin-7a(5H)-yl)methoxy)quinazolin-4-yl)-3,8-diazabicyclo[3.2.1]octan-8-yl)(1H-1,2,4-triazol-1-yl)methanone]: the IC50 (GP2d) lay within 1 to 10 µM.

Consider `C#Cc1c(F)ccc2cc(O)cc(-c3ncc4c(N5CC6CCC(C5)N6C(=O)n5cncn5)nc(OC[C@@]56CCCN5C[C@H](F)C6)nc4c3F)c12` [Compound A234, (3-(7-(8-ethynyl-7-fluoro-3-hydroxynaphthalen-1-yl)-8-fluoro-2-(((2R,7aS)-2-fluorotetrahydro-1H-pyrrolizin-7a(5H)-yl)methoxy)pyrido[4,3-d]pyrimidin-4-yl)-3,8-diazabicyclo[3.2.1]octan-8-yl)(1H-1,2,4-triazol-1-yl)methanone], for which the IC50 (GP2D cells (K-Ras G12D)) is at most 1 µM.

`N#Cc1c(N)sc2c(F)ccc(-c3c(Cl)cc4c(N5CC6CCC(C5)N6C(=O)n5ncnc5C#N)nc(OC[C@@]56CCCN5C[C@H](F)C6)nc4c3F)c12` [Compound A246]: the concentration for half-maximal inhibition (IC50) (GP2D cells (K-Ras G12D)) is at most 1 µM.

For the compound `N#Cc1c(N)sc2c(F)ccc(-c3c(Cl)cc4c(O[C@@H]5C[C@H]6CC[C@@H](C5)N6C(=O)n5cncn5)nc(OC[C@@]56CCCN5C[C@H](F)C6)nc4c3F)c12` [Compound A247, 4-(4-(((1R,3s,5S)-8-(1H-1,2,4-triazole-1-carbonyl)-8-azabicyclo[3.2.1]octan-3-yl)oxy)-6-chloro-8-fluoro-2-(((2R,7aS)-2-fluorotetrahydro-1H-pyrrolizin-7 a(5H)-yl)methoxy)quinazolin-7-yl)-2-amino-7-fluorobenzo[b]thiophene-3-carbonitrile], the IC50 (GP2d) was 1 to 10 µM.

With `C#Cc1c(F)ccc2cc(O)cc(-c3ccc4c(N5CC6CCC(C5)N6C(=O)n5cncn5)nc(OC[C@@]56CCCN5C[C@H](F)C6)nc4c3F)c12` [Compound A281, (3-(7-(8-ethynyl-7-fluoro-3-hydroxynaphthalen-1-yl)-8-fluoro-2-(((2R,7aS)-2-fluorotetrahydro-1H-pyrrolizin-7a(5H)-yl)methoxy)quinazolin-4-yl)-3,8-diazabicyclo[3.2.1]octan-8-yl)(1H-1,2,4-triazol-1-yl)methanone], the concentration for half-maximal inhibition (IC50) (GP2D cells (K-Ras G12D)) is at most 1 µM.
